Values quoted from earlier work as cited in patent US12678439B2 (DOUGLAS PHARMACEUTICALS LIMITED, priority 2018, dated 2026).

Question: For `Cc1cccc(C)c1OCC(=O)N[C@@H](Cc1ccccc1)[C@@H](O)C[C@H](Cc1ccccc1)NC(=O)[C@H](C(C)C)N1CCCNC1=O` (relative stereo) [Lopinavir, [1S-[1R*(R*), 3R*, 4R*]]—N-[4-[(2,6-dimethylphenoxyl0acetyl]amino]-3-hydroxy-5-phenyl-1-(phenylmethyl)pentyl]tetrahydro-alpha-(1-methylethyl)-2-oxo-1(2H)-pyrimidineacetamide], which solubility in water is on record?
Answer: virtually insoluble
